Legend:
Assay type in all cases: cell-based
[1] = tested on: Xenopus Opn4x L207^5.42F mutant; test: GsX GloSensor assay with Gsα/q11; conditions: 16.7 μM AA92593, COS-1 cells
From the text: (§1) Similar to human and mouse melanopsins (Fig. 5, F and H, I, M, and N), the introduction of a Phe residue at position 207^5.42 in Xenopus Opn4x and Chicken Opn4-1 increased their susceptibility of the melanopsins for AA92593 by ∼53% and ∼37%, respectively, although the substitutions reduced light-dependent cAMP responses by the melanopsins (Fig. 6, C and F, G and H). […]
(§2) For GloSensor assay, opsins, GloSensor assay sensor (coded by pGlo-22F), and NanoBiT-tagged G proteins were transiently expressed in COS-1 cells (kindly provided from Dr David Farrens, Oregon Health and Science University) using PEI as described previously ([24], [52]). […] For GFP-fluorescence microscopy, a 35-mm cell culture dish (IWAKI) was transfected with 2 μg melanopsin-GFP plasmid and 8 μg PEI in 400 μl Opti-mem and 1.2 ml D-MEM. […]
(§3) The transfected COS-1 cells were incubated at 37 °C, 5% CO2 for 2 days, and the medium was aspirated and exchanged with 50 μl of HBSS (145 mM NaCl, 10 mM D-glucose, 5 mM KCl, 1 mM MgCl2, 1.7 mM CaCl2, 1.5 mM NaHCO3, 10 mM Hepes, pH 7.4), containing 33.3, 20, 10, 2, 0.2, 0.02, 0.002, or 0 μM AA92593, 0.5% dimetyl sulfoxide (DMSO), and 4% (vol/vol) GloSensor cAMP reagent stock solution. […] Then, the cells were incubated at room temperature for 1 h, and luminescence changes were monitored. […] Luminescence was measured using GM-2000 or GM-3510 microplate reader (Promega). […]

[2] = tested on: chicken Opn4-1 L207^5.42F mutant; test: GsX GloSensor assay with Gsα/q11; conditions: 16.7 μM AA92593, COS-1 cells
From the text: as §1, §2, §3

[3] = target: T1, mouse melanopsin F94^2.61C/S188^ECL2T/S269^6.52A mutant (Mus musculus, UniProt Q9QXZ9, F126C/S221T/S310A); test: NanoBiT Gq dissociation assay; conditions: 1.67 and 16.7 μM AA92593; COS-1 cells
T1 construct: expressed in transfected cells; host or cells: COS-1
From the text: As described above, we have assessed the inhibitory effect of AA92593 using the GsX GloSensor assay. To confirm whether an antagonistic effect could be observed in another experimental system, we used the NanoBiT G protein dissociation assay ([23]). In this assay, Gq activation (dissociation) is detected as a decrease in NanoLuc luminescence from the Lg-BiT fragment inserted with Gqα and the Sm-BiT fragment fused with Gβγ (see “Experimental procedures”) ([23], [24]). If an antagonistic effect is observed in the NanoBiT assay, the light-dependent decrease in luminescence (Gq dissociation) by melanopsin would be reduced in the presence of AA92593. […]
as §2
The transfected COS-1 cells were incubated at 37 °C, 5% CO2 for 1 day, and the medium was aspirated, followed by the addition of 50 μl of HBSS containing 33.3, 3.33, or 0 μM AA92593, 0.5% DMSO, and 10 μM coelenterazine h (Wako). […] Luminescence was measured using GM-2000 or GM-3510 microplate reader (Promega). […]

T1 sequence (Q9QXZ9 1-381 F126C/S221T/S310A): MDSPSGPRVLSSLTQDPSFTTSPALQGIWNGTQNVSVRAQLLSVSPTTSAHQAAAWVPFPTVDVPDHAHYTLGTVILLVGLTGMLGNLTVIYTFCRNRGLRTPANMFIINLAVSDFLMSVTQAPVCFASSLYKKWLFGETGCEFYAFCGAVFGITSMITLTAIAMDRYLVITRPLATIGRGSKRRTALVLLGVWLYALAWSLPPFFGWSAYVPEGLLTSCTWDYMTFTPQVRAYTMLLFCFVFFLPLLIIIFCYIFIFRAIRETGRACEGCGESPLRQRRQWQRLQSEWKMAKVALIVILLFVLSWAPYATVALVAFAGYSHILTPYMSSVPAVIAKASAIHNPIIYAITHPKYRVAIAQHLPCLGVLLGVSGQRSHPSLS

COc1ccc(S(=O)(=O)N2CCCCC2)cc1C [AA92593]
increase in susceptibility for AA92593 vs WT [1]: ~53%
increase in susceptibility for AA92593 vs WT [2]: ~37%
antagonistic effect on Gq activation compared to WT [3]: similarly reduced
